Data published in ChEMBL document CHEMBL5113491, “Discovery of N-benzylarylamide derivatives as novel tubulin polymerization inhibitors capable of activating the Hippo pathway” (Eur J Med Chem, 2022).
Calls of active or inactive are those of the source. The rule behind the calls is not given here.

Assays:
HGC-27 = experiment: Antiproliferative activity against human HGC-27 cells assessed as inhibition of cell growth measured after 48 hrs by MTT assay; format: functional, cell-based; details: HGC-27, 48 h
Huh-7 = experiment: Antiproliferative activity against human Huh-7 cells assessed as inhibition of cell growth measured after 48 hrs by MTT assay; format: functional, cell-based; details: Huh-7, 48 h
SGC-7901 [1] = experiment: Induction of G2/M phase cell cycle arrest in human SGC-7901 cells assessed as increase in p-Histone H3 expression at 15 to 45 nmol/L measured after 48 hrs by Western blot analysis; format: functional, cell-based; details: dose 15-45 nmol/L
SGC-7901 [2] = experiment: Induction of cell apoptosis in human SGC-7901 cells assessed as increase in apoptotic cells measured after 48 hrs by Annexin V/PI staining based flow cytometric analysis; format: functional; details: dose 15-45 nmol/L, DDE = dose-dependent effect
MGC-803 [3] = experiment: Induction of morphological changes in human MGC-803 cells assessed as cell fragmentation at 15 to 45 nmol/L measured after 48 hrs by bright field microscopic analysis; format: functional, cell-based; details: dose 15-45 nmol/L
MGC-803 [4] = experiment: Downregulation of TAZ protein expression in human MGC-803 cells measured after 48 hrs by Western blot analysis; format: functional, cell-based; details: dose 15-45 nmol/L, DDE = dose-dependent effect
SGC-7901 [5] = experiment: Induction of G2/M phase cell cycle arrest in human SGC-7901 cells assessed as decrease in cyclin B1 expression at 15 to 45 nmol/L measured after 48 hrs by Western blot analysis; format: functional, cell-based; details: dose 15-45 nmol/L
SGC-7901 [6] = experiment: Antiproliferative activity against human SGC-7901 cells assessed as inhibition of cell growth at 15 to 45 […] by MTT assay; format: functional, cell-based; details: dose 15-45 µmol/L, time <= 72.0 hrs, TDE = time-dependent effect
SGC-7901 [7] = experiment: Induction of morphological changes in human SGC-7901 cells assessed as decrease in density at 15 to 45 nmol/L measured after 48 hrs by bright field microscopic analysis; format: functional, cell-based; details: dose 15-45 nmol/L
MGC-803 [8] = experiment: Induction of G2/M phase cell cycle arrest in human MGC-803 cells assessed as increase in p-Histone H3 expression at 15 to 45 nmol/L measured after 48 hrs by Western blot analysis; format: functional, cell-based; details: dose 15-45 nmol/L
MGC-803 [9] = experiment: Induction of cell apoptosis in human MGC-803 cells assessed as increase in apoptotic cells measured after 48 hrs by Annexin V/PI staining based flow cytometric analysis; format: functional; details: dose 15-45 nmol/L, DDE = dose-dependent effect
SGC-7901 [10] = experiment: Antiproliferative activity against human SGC-7901 cells assessed as inhibition of cell growth measured after 48 hrs by MTT assay; format: functional, cell-based; details: SGC-7901, 48 h
KYSE-450 = experiment: Antiproliferative activity against human KYSE-450 cells assessed as inhibition of cell growth measured after 48 hrs by MTT assay; format: functional, cell-based; details: KYSE-450, 48 h
MGC-803 [11] = experiment: Antiproliferative activity against human MGC-803 cells assessed as inhibition of cell growth measured after 48 hrs by MTT assay; format: functional, cell-based; details: MGC-803, 48 h
MGC-803 [12] = experiment: Downregulation of YAP protein expression in human MGC-803 cells measured after 48 hrs by Western blot analysis; format: functional, cell-based; details: dose 15-45 nmol/L, DDE = dose-dependent effect
ECa-109 cell line = experiment: Antiproliferative activity against human EC109 cells assessed as inhibition of cell growth measured after 48 hrs by MTT assay; format: functional, cell-based; details: ECa-109, 48 h
SGC-7901 [13] = experiment: Induction of apoptosis in human SGC-7901 cells assessed as decrease in Mcl-1 protein expression measured after 48 hrs by Western blot analysis; format: functional, cell-based; details: dose 15-45 nmol/L, DDE = dose-dependent effect
SGC-7901 [14] = experiment: Induction of apoptosis in human SGC-7901 cells assessed as increase in cleaved PARP expression at 15 to 45 nmol/L measured after 48 hrs by Western blot analysis; format: functional, cell-based; details: dose 15-45 nmol/L
MGC-803 [15] = experiment: Induction of morphological changes in human MGC-803 cells assessed as decrease in density at 15 to 45 nmol/L measured after 48 hrs by bright field microscopic analysis; format: functional, cell-based; details: dose 15-45 nmol/L
MGC-803 [16] = experiment: Induction of apoptosis in human MGC-803 cells assessed as increase in cleaved PARP expression at 15 to 45 nmol/L measured after 48 hrs by Western blot analysis; format: functional, cell-based; details: dose 15-45 nmol/L
MGC-803 [17] = experiment: Inhibition of colony formation in human MGC-803 cells measured after 7 days; format: functional, cell-based; details: dose 6-30 nmol/L, time 7.0 day, DDE = dose-dependent effect
SGC-7901 [18] = experiment: Induction of morphological changes in human SGC-7901 cells assessed as cell fragmentation at 15 to 45 nmol/L measured after 48 hrs by bright field microscopic analysis; format: functional, cell-based; details: dose 15-45 nmol/L
SGC-7901 [19] = experiment: Induction of apoptosis in human SGC-7901 cells assessed as decrease in Bcl-xl protein expression measured after 48 hrs by Western blot analysis; format: functional, cell-based; details: dose 15-45 nmol/L, DDE = dose-dependent effect
MGC-803 [20] = experiment: Induction of cell cycle arrest in human MGC-803 cells assessed as increase in G2/M phase cells measured after 24 hrs by flow cytometry; format: functional, cell-based; details: dose 15-45 nmol/L, DDE = dose-dependent effect
SGC-7901 [21] = experiment: Activation of MST in human SGC-7901 cells assessed as increase in MST phosphorylation measured after 48 hrs by Western blot analysis; format: cell-based; details: filed as activator, dose 15-45 nmol/L, DDE = dose-dependent effect
MGC-803 [22] = experiment: Induction of morphological changes in human MGC-803 cells assessed as increase in proportion of dead cells at 15 to 45 nmol/L measured after 48 hrs by calcein-AM/PI staining based microscopic analysis; format: functional, cell-based; details: dose 15-45 nmol/L
MGC-803 [23] = experiment: Activation of LATS in human MGC-803 cells assessed as increase in LATS phosphorylation measured after 48 hrs by Western blot analysis; format: cell-based; details: filed as activator, dose 15-45 nmol/L, DDE = dose-dependent effect
NCI-H520 = experiment: Antiproliferative activity against human NCI-H520 cells assessed as inhibition of cell growth measured after 48 hrs by MTT assay; format: functional, cell-based; details: NCI-H520, 48 h
SGC-7901 [24] = experiment: Induction of G2/M phase cell cycle arrest in human SGC-7901 cells assessed as decrease in cyclin A1 expression at 15 to 45 nmol/L measured after 48 hrs by Western blot analysis; format: functional, cell-based; details: dose 15-45 nmol/L
SGC-7901 [25] = experiment: Induction of G2/M phase cell cycle arrest in human SGC-7901 cells assessed as decrease in cyclin A2 expression at 15 to 45 nmol/L measured after 48 hrs by Western blot analysis; format: functional, cell-based; details: dose 15-45 nmol/L
Tubulin (Homo sapiens) = Tubulin (Homo sapiens) (UniProt P68371+Q9H4B7+P0DPH7+P68366+Q13509+Q71U36+P04350+Q3ZCM7+P07437+P68363+Q9BQE3+Q6PEY2+Q13885+Q9BVA1+Q9BUF5); experiment: Induction of microtubule disruption in human MGC-803 cells at 25 nmol/L measured after 48 hrs by DAPI staining based immunofluorescence assay; format: cell-based
MGC-803 [26] = experiment: Induction of apoptosis in human MGC-803 cells assessed as decrease in c-IAP1 protein expression measured after 48 hrs by Western blot analysis; format: functional, cell-based; details: dose 15-45 nmol/L, DDE = dose-dependent effect
SGC-7901 [27] = experiment: Induction of G2/M phase cell cycle arrest in human SGC-7901 cells assessed as decrease in p-cdc2 (T161) expression at 15 to 45 nmol/L measured after 48 hrs by Western blot analysis; format: functional, cell-based; details: dose 15-45 nmol/L
SGC-7901 [28] = experiment: Downregulation of TAZ protein expression in human SGC-7901 cells measured after 48 hrs by Western blot analysis; format: functional, cell-based; details: dose 15-45 nmol/L, DDE = dose-dependent effect
HUVEC = experiment: Cytotoxicity against human HUVEC cells assessed as reduction in cell viability at 5 to 40 nM measured after 48 hrs by MTT assay; format: toxicity, cell-based; details: 0.04 µM, dose 5-40 nM
MGC-803 [29] = experiment: Induction of G2/M phase cell cycle arrest in human MGC-803 cells assessed as decrease in cyclin A2 expression at 15 to 45 nmol/L measured after 48 hrs by Western blot analysis; format: functional, cell-based; details: dose 15-45 nmol/L

Structure (SMILES): C/C=C/C(=O)N(Cc1ccc(OC)c(O)c1)c1cc(OC)c(OC)c(OC)c1
- IC50 (HGC-27): 33 nM
- IC50 (Huh-7): 60 nM
- Activity (SGC-7901 [1]): Active
- Activity (SGC-7901 [2]): Dde
- Activity (MGC-803 [3]): Active
- Activity (MGC-803 [4]): Dde
- Activity (SGC-7901 [5]): Active
- Activity (SGC-7901 [6]): Tde
- Activity (SGC-7901 [7]): Active
- Activity (MGC-803 [8]): Active
- Activity (MGC-803 [9]): Dde
- IC50 (SGC-7901 [10]): 25 nM
- IC50 (KYSE-450): 67 nM
- IC50 (MGC-803 [11]): 27 nM
- Activity (MGC-803 [12]): Dde
- IC50 (ECa-109 cell line): 85 nM
- Activity (SGC-7901 [13]): Dde
- Activity (SGC-7901 [14]): Active
- Activity (MGC-803 [15]): Active
- Activity (MGC-803 [16]): Active
- inhibition (MGC-803 [17]): Dde
- Activity (SGC-7901 [18]): Active
- Activity (SGC-7901 [19]): Dde
- Activity (MGC-803 [20]): Dde
- Activity (SGC-7901 [21]): Dde
- Activity (MGC-803 [22]): Active
- Activity (MGC-803 [23]): Dde
- IC50 (NCI-H520): 52 nM
- Activity (SGC-7901 [24]): Active
- Activity (SGC-7901 [25]): Active
- Activity (Tubulin (Homo sapiens)): Active
- Activity (MGC-803 [26]): Dde
- Activity (SGC-7901 [27]): Active
- Activity (SGC-7901 [28]): Dde
- Activity (HUVEC): Non-Toxic
- Activity (MGC-803 [29]): Active
